The OligoGym collection
Bases are written 5' to 3'; sugars and linkages follow in the same order, as letters with counts (s phosphorothioate, o phosphodiester; PS: all linkages phosphorothioate). C may stand for cytosine or 5-methylcytosine; the collection does not tell. l = locked nucleic acid (LNA); d = 2'-deoxy (DNA)

Biological target: HIF1A
Assay: HeLa, 100 nM transfected, 24 h, mean of 3
Settings: ASO

Sequence | caspase activation (% of PBS control)
TGGCAAGCATCCTGTA (sugars l3 d9 l1 d2 l1, PS) | 210
TGGCAAGCATCCTGTA (sugars l3 d9 l2 d1 l1, PS) | 634
TGGCAAGCATCCTGTA (sugars l3 d9 l4, PS) | 582
TGGCAAGCATCCTGTA (sugars l3 d10 l1 d1 l1, PS) | 251
TGGCAAGCATCCTGTA (sugars l3 d10 l3, PS) | 273
TGGCAAGCATCCTGTA (sugars l3 d11 l2, PS) | 314
TGGCAAGCATCCTGTA (sugars l3 d12 l1, PS) | 237
TGGCAAGCATCCTGTA (sugars l4 d7 l1 d1 l3, PS) | 522
TGGCAAGCATCCTGTA (sugars l4 d7 l1 d2 l2, PS) | 323
TGGCAAGCATCCTGTA (sugars l4 d7 l1 d3 l1, PS) | 299
TGGCAAGCATCCTGTA (sugars l4 d7 l2 d1 l2, PS) | 572
TGGCAAGCATCCTGTA (sugars l4 d7 l2 d2 l1, PS) | 528
TGGCAAGCATCCTGTA (sugars l4 d7 l3 d1 l1, PS) | 575
TGGCAAGCATCCTGTA (sugars l4 d7 l5, PS) | 414
TGGCAAGCATCCTGTA (sugars l4 d8 l1 d1 l2, PS) | 385
TGGCAAGCATCCTGTA (sugars l4 d8 l1 d2 l1, PS) | 429
TGGCAAGCATCCTGTA (sugars l4 d8 l2 d1 l1, PS) | 425
TGGCAAGCATCCTGTA (sugars l4 d8 l4, PS) | 349
TGGCAAGCATCCTGTA (sugars l4 d9 l1 d1 l1, PS) | 425
TGGCAAGCATCCTGTA (sugars l4 d9 l3, PS) | 412
TGGCAAGCATCCTGTA (sugars l4 d10 l2, PS) | 396
TGGCAAGCATCCTGTA (sugars l4 d11 l1, PS) | 422
TGGCAAGCATCCTGTA (sugars l5 d6 l1 d1 l3, PS) | 443
TGGCAAGCATCCTGTA (sugars l5 d6 l1 d2 l2, PS) | 399
TGGCAAGCATCCTGTA (sugars l5 d6 l1 d3 l1, PS) | 371

Sequence | caspase activation (% of PBS control)
TGGCAAGCATCCTGTA (sugars l5 d6 l2 d1 l2, PS) | 367
TGGCAAGCATCCTGTA (sugars l5 d6 l2 d2 l1, PS) | 344
TGGCAAGCATCCTGTA (sugars l5 d6 l3 d1 l1, PS) | 366
TGGCAAGCATCCTGTA (sugars l5 d6 l5, PS) | 445
TGGCAAGCATCCTGTA (sugars l5 d7 l1 d1 l2, PS) | 390
TGGCAAGCATCCTGTA (sugars l5 d7 l1 d2 l1, PS) | 386
TGGCAAGCATCCTGTA (sugars l5 d7 l2 d1 l1, PS) | 381
TGGCAAGCATCCTGTA (sugars l5 d7 l4, PS) | 358
TGGCAAGCATCCTGTA (sugars l5 d8 l1 d1 l1, PS) | 401
TGGCAAGCATCCTGTA (sugars l5 d8 l3, PS) | 360
TGGCAAGCATCCTGTA (sugars l5 d9 l2, PS) | 402
TGGCAAGCATCCTGTA (sugars l5 d10 l1, PS) | 403
TGGCAAGCATCCTGTA (sugars lddddddddddldldl, PS) | 228
TGGCAAGCATCCTGTA (sugars ldddlddddddddldl, PS) | 139
TGGCAAGCATCCTGTA (sugars ldddldddddddlddl, PS) | 173
TGGCAAGCATCCTGTA (sugars ldddldddddddldll, PS) | 245
TGGCAAGCATCCTGTA (sugars ldddldddddddlldl, PS) | 167
TGGCAAGCATCCTGTA (sugars ldddlddddddldddl, PS) | 159
TGGCAAGCATCCTGTA (sugars ldddlddddddlddll, PS) | 221
TGGCAAGCATCCTGTA (sugars ldddlddddddldldl, PS) | 213
TGGCAAGCATCCTGTA (sugars ldddlddddddldlll, PS) | 230
TGGCAAGCATCCTGTA (sugars ldddlddddddllddl, PS) | 246
TGGCAAGCATCCTGTA (sugars ldddlddddddlldll, PS) | 285
TGGCAAGCATCCTGTA (sugars ldddlddddddllldl, PS) | 224
TGGCAAGCATCCTGTA (sugars lddldddddddddldl, PS) | 200

Sequence | caspase activation (% of PBS control)
TGGCAAGCATCCTGTA (sugars lddlddddddddlddl, PS) | 312
TGGCAAGCATCCTGTA (sugars lddlddddddddldll, PS) | 371
TGGCAAGCATCCTGTA (sugars lddlddddddddlldl, PS) | 392
TGGCAAGCATCCTGTA (sugars lddldddddddldddl, PS) | 173
TGGCAAGCATCCTGTA (sugars lddldddddddlddll, PS) | 271
TGGCAAGCATCCTGTA (sugars lddldddddddldldl, PS) | 274
TGGCAAGCATCCTGTA (sugars lddldddddddldlll, PS) | 303
TGGCAAGCATCCTGTA (sugars lddldddddddllddl, PS) | 314
TGGCAAGCATCCTGTA (sugars lddldddddddlldll, PS) | 356
TGGCAAGCATCCTGTA (sugars lddldddddddllldl, PS) | 394
TGGCAAGCATCCTGTA (sugars lddllddddddddldl, PS) | 397
TGGCAAGCATCCTGTA (sugars lddlldddddddlddl, PS) | 461
TGGCAAGCATCCTGTA (sugars lddlldddddddldll, PS) | 412
TGGCAAGCATCCTGTA (sugars lddlldddddddlldl, PS) | 409
TGGCAAGCATCCTGTA (sugars lddllddddddldddl, PS) | 361
TGGCAAGCATCCTGTA (sugars lddllddddddlddll, PS) | 257
TGGCAAGCATCCTGTA (sugars lddllddddddldldl, PS) | 402
TGGCAAGCATCCTGTA (sugars lddllddddddldlll, PS) | 353
TGGCAAGCATCCTGTA (sugars lddllddddddllddl, PS) | 388
TGGCAAGCATCCTGTA (sugars lddllddddddlldll, PS) | 388
TGGCAAGCATCCTGTA (sugars lddllddddddllldl, PS) | 416
TGGCAAGCATCCTGTA (sugars ldlddddddddddldl, PS) | 147
TGGCAAGCATCCTGTA (sugars ldldddddddddlddl, PS) | 172
TGGCAAGCATCCTGTA (sugars ldldddddddddldll, PS) | 252
TGGCAAGCATCCTGTA (sugars ldldddddddddlldl, PS) | 281

Sequence | caspase activation (% of PBS control)
TGGCAAGCATCCTGTA (sugars ldlddddddddldddl, PS) | 160
TGGCAAGCATCCTGTA (sugars ldlddddddddlddll, PS) | 218
TGGCAAGCATCCTGTA (sugars ldlddddddddldldl, PS) | 206
TGGCAAGCATCCTGTA (sugars ldlddddddddldlll, PS) | 195
TGGCAAGCATCCTGTA (sugars ldlddddddddllddl, PS) | 197
TGGCAAGCATCCTGTA (sugars ldlddddddddlldll, PS) | 227
TGGCAAGCATCCTGTA (sugars ldlddddddddllldl, PS) | 254
TGGCAAGCATCCTGTA (sugars ldldlddddddddddl, PS) | 204
TGGCAAGCATCCTGTA (sugars ldldldddddddddll, PS) | 210
TGGCAAGCATCCTGTA (sugars ldldlddddddddldl, PS) | 176
TGGCAAGCATCCTGTA (sugars ldldlddddddddlll, PS) | 277
TGGCAAGCATCCTGTA (sugars ldldldddddddlddl, PS) | 226
TGGCAAGCATCCTGTA (sugars ldldldddddddldll, PS) | 290
TGGCAAGCATCCTGTA (sugars ldldldddddddlldl, PS) | 218
TGGCAAGCATCCTGTA (sugars ldldldddddddllll, PS) | 309
TGGCAAGCATCCTGTA (sugars ldldlddddddldddl, PS) | 179
TGGCAAGCATCCTGTA (sugars ldldlddddddlddll, PS) | 178
TGGCAAGCATCCTGTA (sugars ldldlddddddldldl, PS) | 175
TGGCAAGCATCCTGTA (sugars ldldlddddddldlll, PS) | 309
TGGCAAGCATCCTGTA (sugars ldldlddddddllddl, PS) | 219
TGGCAAGCATCCTGTA (sugars ldldlddddddlldll, PS) | 263
TGGCAAGCATCCTGTA (sugars ldldlddddddllldl, PS) | 261
TGGCAAGCATCCTGTA (sugars ldldlddddddlllll, PS) | 342
